# Measured values from the supplement of paper PMC11451515.
# System: P12-Ichikawa
# Test: cell viability relative to DMSO control; higher = less cytotoxic
# Details: 48 h
# Outline: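 Viability, reported as a per-plate percentage of DMSO wells with cell-free wells as background, came from CellTiter-Glo One luminescence. Reading took place after 48 h at 37°C. Before that, NOMO1 or SEM (500 cells/well) or P12-Ichikawa (1000 cells/well) leukemia cells, adapted for at least four passages in each medium, were seeded in 1536-well plates (5 μl) and pin-dosed with library compounds in DMSO, 47 μM to 0.79 nM over 11 threefold points.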
# [1] = HPLM + 10% dialyzed FBS, 0.000781 µM
# [2] = HPLM + 10% dialyzed FBS, 0.00234 µM
# [3] = HPLM + 10% dialyzed FBS, 0.00702 µM
# [4] = HPLM + 10% dialyzed FBS, 0.0211 µM
# [5] = HPLM + 10% dialyzed FBS, 0.0632 µM
# [6] = HPLM + 10% dialyzed FBS, 0.19 µM
# [7] = HPLM + 10% dialyzed FBS, 0.569 µM
# [8] = HPLM + 10% dialyzed FBS, 1.71 µM
# [9] = HPLM + 10% dialyzed FBS, 5.12 µM
# [10] = HPLM + 10% dialyzed FBS, 15.4 µM
# [11] = HPLM + 10% dialyzed FBS, 46.1 µM
# [12] = RPMI 5 mM glucose + 10% FBS, 0.000781 µM
# [13] = RPMI 5 mM glucose + 10% FBS, 0.00234 µM
# [14] = RPMI 5 mM glucose + 10% FBS, 0.00702 µM
# [15] = RPMI 5 mM glucose + 10% FBS, 0.0211 µM
# [16] = RPMI 5 mM glucose + 10% FBS, 0.0632 µM
# [17] = RPMI 5 mM glucose + 10% FBS, 0.19 µM
# [18] = RPMI 5 mM glucose + 10% FBS, 0.569 µM
# [19] = RPMI 5 mM glucose + 10% FBS, 1.71 µM
# [20] = RPMI 5 mM glucose + 10% FBS, 5.12 µM
# [21] = RPMI 5 mM glucose + 10% FBS, 15.4 µM
# [22] = RPMI 5 mM glucose + 10% FBS, 46.1 µM
# [23] = RPMI 5 mM glucose + 10% dialyzed FBS, 0.000781 µM
# [24] = RPMI 5 mM glucose + 10% dialyzed FBS, 0.00234 µM
# [25] = RPMI 5 mM glucose + 10% dialyzed FBS, 0.00702 µM
# [26] = RPMI 5 mM glucose + 10% dialyzed FBS, 0.0211 µM
# [27] = RPMI 5 mM glucose + 10% dialyzed FBS, 0.0632 µM
# [28] = RPMI 5 mM glucose + 10% dialyzed FBS, 0.19 µM
# [29] = RPMI 5 mM glucose + 10% dialyzed FBS, 0.569 µM
# [30] = RPMI 5 mM glucose + 10% dialyzed FBS, 1.71 µM
# [31] = RPMI 5 mM glucose + 10% dialyzed FBS, 5.12 µM
# [32] = RPMI 5 mM glucose + 10% dialyzed FBS, 15.4 µM
# [33] = RPMI 5 mM glucose + 10% dialyzed FBS, 46.1 µM
SMILES,cell viability [1] [%],cell viability [2] [%],cell viability [3] [%],cell viability [4] [%],cell viability [5] [%],cell viability [6] [%],cell viability [7] [%],cell viability [8] [%],cell viability [9] [%],cell viability [10] [%],cell viability [11] [%],cell viability [12] [%],cell viability [13] [%],cell viability [14] [%],cell viability [15] [%],cell viability [16] [%],cell viability [17] [%],cell viability [18] [%],cell viability [19] [%],cell viability [20] [%],cell viability [21] [%],cell viability [22] [%],cell viability [23] [%],cell viability [24] [%],cell viability [25] [%],cell viability [26] [%],cell viability [27] [%],cell viability [28] [%],cell viability [29] [%],cell viability [30] [%],cell viability [31] [%],cell viability [32] [%],cell viability [33] [%]
Cc1c(CN2CCN(C(=O)[C@H](C)O)CC2)sc2c(N3CCOCC3)nc(-c3cnc(N)nc3)nc12,96.6,99.8,99.1,103,94.9,99.8,75,69.3,63.8,60.8,59.8,95.6,94,90.7,86.8,75.1,79.5,64.4,52.9,49.4,46.2,43.5,93.5,94.8,97.4,98.5,81.6,77.8,63.1,54.5,41.9,46,42.6
C\C1=C\C(=O)OC2=C1C=CC(=C2)O,122,121,121,122,109,116,108,107,106,102,93,112,119,115,122,109,114,107,111,99.9,118,99.1,122,115,114,122,120,108,114,104,103,104,106
COC1CCC(CC1)N(C(=O)C2CCC(C)CC2)C3=C(SC(=C3)\C4=C\CCCC4)C(O)=O (stereo not given),118,118,116,111,108,113,111,104,95.3,83.5,60,109,112,109,108,92.8,106,105,98.2,94.9,88.7,65.6,103,105,111,110,101,102,105,97.6,98.9,77.8,63.9
CC1(C)CCC[C@]2(C)[C@H]3CC(=O)O[C@]3(C)CC[C@@H]12,118,115,114,114,116,110,115,116,110,107,99.1,121,120,122,120,119,124,119,109,109,111,93.5,110,115,119,116,112,113,105,107,108,97.5,92.4
C=CC(=O)Nc1cccc(Oc2nc(Nc3ccc(N4CCN(C)CC4)cc3)ncc2Cl)c1,109,123,123,122,131,130,122,113,102,22.4,52.5,–,–,–,–,–,–,–,–,–,–,–,–,–,–,–,–,–,–,–,–,–,–
C=C(C)[C@@H]1CC[C@]2(C(=O)O)CC[C@]3(C)[C@H](CC[C@@H]4[C@@]5(C)CC[C@H](O)C(C)(C)[C@@H]5CC[C@]43C)[C@@H]12,111,123,120,114,116,111,109,103,99.9,99.1,97.3,108,116,114,109,116,107,119,106,97.8,98.5,103,114,121,120,110,108,102,111,100,95.1,94.3,87.3
COc1cccc2cc(-c3nc(C4CCC(C(=O)O)CC4)n4ncnc(N)c34)[nH]c12 (stereo not given),111,117,120,112,91.3,98.6,21,14.3,13.8,14.2,24.5,109,116,114,99.9,89,91.4,67.8,18.7,13.8,13.4,12.6,115,123,112,119,89.6,93.3,70.2,26.5,23.2,20.1,22.3
CNC(=O)c1ccc(-c2cnc3ncc(Cc4ccc5ncccc5c4)n3n2)cc1F,113,119,125,129,136,125,134,120,135,124,126,–,–,–,–,–,–,–,–,–,–,–,–,–,–,–,–,–,–,–,–,–,–
